The results in this text go back to patent EP4768485A1 (Guangzhou Baiyunshan Pharmaceutical Holdings Co., Ltd. …, priority 2023, dated 2025).

The target of one data set is EcFabI (Escherichia coli, UniProt P0AEK4). Kind of data set: FabI enzymatic activity by NADH/NADPH oxidation (fluorescence), EcFabI. The class given is biochemical. The conditions noted are these: 9 nmol/L EcFabI; trans-dodecenoyl-CoA and NADH; pH 6.5.
A further data set concerns MRSA NRS 384. Kind of data set: MIC, agar plate two-fold dilution. The class given is cell-based, Staphylococcus aureus. The following applies: MHA, 37°C, 16-20 hours; for MIC: Staphylococcus aureus. Here is the method: (§1) In this test example, the minimum inhibitory concentration (MIC) of the compound was determined.
(§2) The test drug concentration was set to be within a range of 0.008 µg/mL to 128 µg/mL in a two-fold serial dilution using an agar plate two-fold dilution method. The sample was dissolved in DMSO to prepare a 2 mL solution with a concentration of 1.92 mg/mL. The control group was prepared in sterile distilled water to obtain a concentration of 1.92 mg/mL. 1 mL of the prepared drug solution was added to a sterile culture dish, followed by addition of 14 mL of MHA culture medium at approximately 60°C. After thorough mixing, 1 mL of sterilized distilled water was added for two-fold dilution, resulting in a final drug concentration of 64 µg/mL, 32 µg/mL, 16 µg/mL, 8 µg/mL, 4 µg/mL, 2 µg/mL, 1 µg/mL, 0.5 µg/mL, 0.25 µg/mL, 0.125 µg/mL, 0.06 µg/mL, 0.03 µg/mL, 0.015 µg/mL, and 0.008 µg/mL (wherein the final concentrations of samples 2, 4, and 9 were diluted downward starting from 128 µg/mL), and set aside for later use. The prepared bacterial suspension was inoculated onto drug-containing MHA culture medium with a multi-point inoculator, with an inoculation volume of approximately 10^4 CFU per point. A sterile control group (1 mL DMSO + 14 mL MHA culture medium and 1 mL sterile distilled water + 14 mL MHA culture medium) was set up.

For another data set, the system named is MSSA ATCC 29213. Put plainly: MIC, agar plate two-fold dilution. The class given is cell-based, Staphylococcus aureus. The following applies: MHA, 37°C, 16-20 hours; for MIC: Staphylococcus aureus. On the procedure: as §1, §2
In another data set the test system is VRSA VRS 1. Put plainly: MIC, agar plate two-fold dilution. The format is cell-based, Staphylococcus aureus. The following applies: MHA, 37°C, 16-20 hours; for MIC: Staphylococcus aureus. Here is the method:
as §1, §2

Data set [1] concerns Acinetobacter baumannii ARLG 1852. Put plainly: MIC, agar plate two-fold dilution. The format is cell-based. On the procedure: as §1, §2
In data set [2] the test system is Escherichia coli. ATCC 25923. Kind of data set: MIC, agar plate two-fold dilution. The class given is cell-based. The following applies: MHA, 37°C, 16-20 hours; for MIC: Escherichia coli, ATCC25923, read-out: Minimum Inhibitory Concentration MIC, Escherichia coli. ATCC 25923; for Minimum Inhibitory Concentration MIC: Escherichia coli. ATCC 25923. On the procedure: as §1, §2

Data set [3] deals with Klebsiella pneumoniae ATCC BAA 2472. Kind of data set: MIC, agar plate two-fold dilution. The class given is cell-based. Here is the method: as §1, §2
A further data set addresses SaFabI (Staphylococcus aureus, UniProt Q6GI75). Put plainly: FabI enzymatic activity by NADH/NADPH oxidation (fluorescence), SaFabI. The conditions noted are these: SaFabI IC50, 15 nmol/L SaFabI; trans-octenoyl-CoA and NADPH; pH 6.5.
The test system of another data set is Escherichia coli. Put plainly: MIC, agar plate two-fold dilution. The class given is cell-based. The following applies: ATCC25923; Escherichia coli. ATCC 25923; MHA, 37°C, 16-20 hours; read-out: Minimum Inhibitory Concentration MIC. On the procedure: as §1, §2
Data set [4] relates to methicillin-resistant S. aureus (NRS384). Kind of data set: Systemic infection model in mice, in vivo efficacy. Also on record: species or system Balb/c mice. The following applies: single-dose oral administration, 0.3, 1.0, 3.0 mg/Kg; vs linezolid 3 mg/Kg and Debio-1450. Here is the method: In this test experiment, the in vivo efficacy of the compound in mice was evaluated using a systemic infection model.
Ninety healthy adult male Balb/c mice (purchased from Beijing Vital River Laboratory Animal Technology Co., Ltd. , China) were selected, and divided into 10 groups, including one negative control group (9 mice, inoculated with bacteria and given vehicle), one positive control group (9 mice, vancomycin), one linezolid test group (9 mice), three test groups of high, medium, and low doses (3 ×9 mice) for compound 1a, three test groups of high, medium, and low doses (3 ×9 mice) for Debio-1450, and one test group for Debio-1452 (9 mice). All mice were acclimatized for 3-4 days before testing. The strain inoculated in this test example was methicillin-resistant S. aureus (NRS384), which was administered via tail vein injection at a dose of 1.0 × 10^8 CFU/mouse. The compound was administered 0.5 h post inoculation with the strain. The compound 1a and Debio-1452 were formulated in a vehicle containing 5% DMSO, 30% PEG400, and 65% H2O, while Debio-1450 was formulated in an isotonic glucose solution (freshly prepared) as the vehicle and was administered orally as a single dose. The specific dosing regimen is shown in Table 5: Table 5 Dosing Regimen for Systemic Infection Efficacy Model

Data set [5] is described as follows: Pharmacokinetic study in rats. The format is in vivo, Sprague-Dawley (SD) rats. The conditions noted are these: oral gavage. Here is the method: In this test experiment, a pharmacokinetic study of the compound in rats was conducted.
Twelve healthy adult female Sprague-Dawley (SD) rats (purchased from Beijing Vital River Laboratory Animal Technology Co., Ltd., China) with an average body weight of about 180-220 g were selected, and divided into four groups (n=3 per group). Two groups were administered via tail vein injection, while the other two groups were administered via oral gavage. Compound 1b was dissolved in a vehicle containing 5% DMSO, 30% PEG400, and 65% H2O, and Debio-1450 was dissolved in physiological saline, both of which were formed into a stable clear solution for later use. Animals were fasted for 12 hours before administration and resumed normal feeding 2 hours post administration. Then, blood samples were collected through the jugular vein at the following time points: 0.083 h, 0.25 h, 0.5 h, 1 h, 2 h, 4 h, 8 h, 24 h (tail vein injection) and 0.25 h, 0.5 h, 1 h, 2 h, 4 h, 8 h, 24 h (oral gavage administration), respectively, with a blood collection volume of about 200-400 µL. Whole blood collected at each time point was immediately transferred into an anticoagulant tube containing K2EDTA, then stored on ice in an insulated container. All samples were centrifuged within 15 minutes at 4600 r/min and 4°C for 5 minutes to separate plasma. The concentration of the compound in the plasma of each rat was determined using LC-MS/MS method, and the pharmacokinetic parameter was calculated from the drug concentration-time profile. Table 4 Oral Pharmacokinetic Parameters of Compound 1b/Debio-1450 In Rats

[6] abbreviates: MRSA|NRS384, read-out: Minimum Inhibitory Concentration MIC, MRSA NRS 384.
The mark [7] stands for this setting: ATCC29213|MSSA, read-out: Minimum Inhibitory Concentration MIC, MSSA ATCC 29213.
[8] abbreviates: VRSA, read-out: Minimum Inhibitory Concentration MIC, VRSA VRS 1.
Where [9] appears, read: Acinetobacter baumannii, ARLG1852, read-out: Minimum Inhibitory Concentration MIC.
[10] abbreviates: Klebsiella pneumoniae, BAA2472, read-out: Minimum Inhibitory Concentration MIC.
[11] abbreviates: Acinetobacter baumannii ARLG 1852, MHA, 37°C, 16-20 hours.
Where [12] appears, read: Klebsiella pneumoniae ATCC BAA 2472, MHA, 37°C, 16-20 hours.
The mark [13] stands for this setting: female, Sprague-Dawley, rat, 10 mg/Kg, plasma.

≈ marks a conversion by molar mass, not a printed value. Read-outs that look alike come from different tables or passages of the source.

Chain of SaFabI (Q6GI75 whole entry): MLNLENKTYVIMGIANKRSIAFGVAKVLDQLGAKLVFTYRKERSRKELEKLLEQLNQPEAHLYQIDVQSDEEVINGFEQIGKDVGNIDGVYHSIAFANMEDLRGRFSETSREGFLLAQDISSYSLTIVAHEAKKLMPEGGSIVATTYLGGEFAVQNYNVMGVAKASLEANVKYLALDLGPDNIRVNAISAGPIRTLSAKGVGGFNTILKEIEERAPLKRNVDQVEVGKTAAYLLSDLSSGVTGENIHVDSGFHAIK
Chain of EcFabI (P0AEK4 whole entry): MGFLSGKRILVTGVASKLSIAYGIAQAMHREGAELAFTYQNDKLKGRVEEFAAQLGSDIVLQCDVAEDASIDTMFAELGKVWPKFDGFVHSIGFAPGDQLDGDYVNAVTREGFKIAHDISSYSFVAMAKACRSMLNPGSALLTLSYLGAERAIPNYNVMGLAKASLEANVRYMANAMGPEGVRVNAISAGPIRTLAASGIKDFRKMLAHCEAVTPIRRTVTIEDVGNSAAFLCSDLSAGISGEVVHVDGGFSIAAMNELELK
Description for EcFabI: (§3) In this test example, the enzymatic activity was evaluated by monitoring the oxidation of cofactor NADH/NADPH using a microplate reader.
(§4) The compound was dissolved in DMSO and added to a 384-well plate using ECHO665. Serial 3-fold or 4-fold dilutions were prepared to generate 10 dose points with two replicates per concentration, ensuring a final DMSO concentration 1% in each reaction well. Then, a FabI protein solution was added, and the protein was prepared in a buffer containing 100 mmol/L PBS, 0.05% Tween-20, and 150 mmol/L NaCl (pH 6.5), so that the final concentrations of SaFabI and EcFabI proteins were 15 nmol/L and 9 nmol/L, respectively. The prepared 5 µL of 15 nmol/L SaFabI and 9 nmol/L EcFabI were added to a 384-well assay plate, and centrifuged at 1000 rpm for 1 minute. Then, the plate was pre-incubated in a temperature-controlled shaker at 30 °C for 20 minutes. Moreover, substrates trans-octenoyl-CoA, NADPH, trans-dodecenoyl-CoA, and NADH were diluted in a buffer containing 100 mmol/L PBS, 0.05% Tween-20, and 15 0 mmol/L NaCl (pH 6.5) respectively, and their concentrations were adjusted to 300 µmol/L, 300 µmol/L, 600 µmol/L, and 150 µmol/L, respectively. For SaFabI, 5 µL of 300 µmol/L trans-octenoyl-CoA and 5 µL of 300 µmol/L NADPH were added to initiate the reaction. Immediately after initiation, the plate was placed into the microplate reader, and fluorescence signals (Ex 340 nm/Em 460 nm) were recorded every 0.5 minutes for at least 10 minutes. Similarly, 5 µL of 600 µmol/L trans-dodecenoyl-CoA and 5 µL of 150 µmol/L NADH were added to initiate reaction of EcFabI. Immediately after initiation, the plate was immediately placed into the microplate reader, and fluorescence signals (Ex 340 nm/Em 460 nm) were recorded every 0.5 minutes for at least 10 minutes. The reaction rate (fluorescence signal per minute) of each well was calculated from the fluorescence values. The inhibitory effect of the compound on the protein was then calculated based on the reaction rate, and the IC50 value for inhibition of enzyme activity by the compound was determined by fitting the data using GraphPad Prism 6 with log (inhibitor) vs. response variable slope model. The fitting equation is: Y=Bottom + (Top-Bottom)/(1+10^((LogIC50-X)*HillSlope)), wherein Y represents the known percentage of residual enzyme activity, and X represents the known Log concentration of the compound.
Description for SaFabI: as §3, §4

What is called IC50 is the concentration that gives 50% inhibition. In the case of `Cc1c(CN(C)C(=O)/C=C/c2cnc3c(c2)C2CC2(N)C(=O)N3)oc2c(C3CC3)cccc12` (single isomer, unassigned) [Compound 2a], the IC50 at EcFabI stood at 6 nM; on SaFabI, 10 nM. Moreover, the MIC with MRSA NRS 384 (setting [6]) was less than 0.008 µg/mL; in the data set with MSSA ATCC 29213 (setting [7]), less than 0.008 µg/mL; with VRSA VRS 1 (setting [8]), 0.06 µg/mL (≈ 0.136 µM); in [1] (setting [9]), more than 32 µg/mL; in data set [2], 8 µg/mL (≈ 18.1 µM); in data set [3] (setting [10]), 32 µg/mL (≈ 72.3 µM).
Consider `Cc1c(CN(C)C(=O)/C=C/c2cnc3c(c2)C2CC2(N)C(=O)N3)oc2c(C3CC3)cccc12` (single isomer, unassigned) [Compound 2b], for which the 50% inhibitory concentration (IC50) is 13 nM at EcFabI and 12 nM at SaFabI. Besides, the “Minimum Inhibitory Concentration MIC” value was less than 0.008 µg/mL with MRSA NRS 384 (MRSA NRS 384); 0.016 µg/mL in the data set on MSSA ATCC 29213 (MSSA ATCC 29213); 0.06 µg/mL with VRSA VRS 1 (VRSA VRS 1); more than 32 µg/mL in data set [1] (setting [11]); more than 16 µg/mL in [2]; 32 µg/mL in data set [3] (setting [12]).
Turning to `Cc1c(CN(C)C(=O)/C=C/c2cnc3c(c2)C2CC2(N)C(=O)N3)oc2ccccc12` (stereo not drawn) [Compound 3b], the “Minimum Inhibitory Concentration MIC” value in the data set on MRSA NRS 384 (MRSA NRS 384) was 0.016 µg/mL; in the data set with MSSA ATCC 29213 (MSSA ATCC 29213), 0.016 µg/mL; with VRSA VRS 1 (VRSA VRS 1), 0.25 µg/mL; in data set [1] (setting [11]), more than 32 µg/mL; in data set [2] it was 8 µg/mL; in [3] (setting [12]), more than 32 µg/mL.
As to `Cc1c(CN(C)C(=O)/C=C/c2cnc3c(c2)C2CC2(N)C(=O)N3)oc2ccccc12` (stereo not drawn) [Compound 3a], the IC50 against EcFabI came out at 7 nM; against SaFabI, 10 nM. Besides, the MIC was 0.03 µg/mL (≈ 0.0745 µM) in the data set with MRSA NRS 384 (setting [6]); 0.03 µg/mL (≈ 0.0745 µM) in the data set with MSSA ATCC 29213 (setting [7]); 0.5 µg/mL (≈ 1.24 µM) with VRSA VRS 1 (setting [8]); more than 32 µg/mL in data set [1] (setting [9]); 8 µg/mL (≈ 19.9 µM) in data set [2]; more than 32 µg/mL in data set [3] (setting [10]).
`Cc1c(CN(C)C(=O)/C=C/c2cnc3c(c2)CCC(=O)N3)oc2ccccc12` [Debio-1452, reference compound]: the IC50 was 3 nM against EcFabI and 2 nM against SaFabI. The MIC is less than 0.008 µg/mL in the data set on MRSA NRS 384 (MRSA NRS 384, read-out: Minimum Inhibitory Concentration MIC); less than 0.008 µg/mL in the data set on MSSA ATCC 29213 (MSSA ATCC 29213, read-out: Minimum Inhibitory Concentration MIC); 0.12 µg/mL (≈ 0.32 µM) in the data set on VRSA VRS 1 (VRSA VRS 1, read-out: Minimum Inhibitory Concentration MIC); more than 8 µg/mL in data set [1] (ARLG1852, Acinetobacter baumannii ARLG 1852, MHA, 37°C, 16-20 hours, read-out: Minimum Inhibitory Concentration MIC); 4 µg/mL (≈ 10.7 µM) in the data set with Escherichia coli.; more than 8 µg/mL in [3] (BAA2472, Klebsiella pneumoniae ATCC BAA 2472, MHA, 37°C, 16-20 hours, read-out: Minimum Inhibitory Concentration MIC).
Regarding `Cc1c(CN(C)C(=O)/C=C/c2cnc3c(c2)C2CC2(N)C(=O)N3)oc2c(C)cccc12` (stereo not drawn) [Compound 1a], the IC50 was 4 nM against EcFabI and 5 nM against SaFabI. Also, the MIC with MRSA NRS 384 (setting [6]) was less than 0.008 µg/mL; in the data set on MSSA ATCC 29213 (setting [7]) it was less than 0.008 µg/mL; in data set [1] (setting [9]), more than 32 µg/mL; in data set [2] it was 4 µg/mL (≈ 9.6 µM); in data set [3] (setting [10]), 16 µg/mL (≈ 38.4 µM). Moreover, the “Minimum Inhibitory Concentration MIC” value in the data set with VRSA VRS 1 (VRSA VRS 1) is on record as 0.25 µg/mL. Further, the “efficacy compared with the reference compounds” value in data set [4] is “markedly superior efficacy to linezolid and better efficacy than Debio-1450”.
In general, Cmax refers to the highest concentration seen after dosing. In general, Tmax refers to the time from dosing to the highest level. In general, half-life refers to how long it takes for the measured level to halve. A lower half-life goes with rapid decline. As for `Cc1c(CN(C)C(=O)/C=C/c2cnc3c(c2)CCC(=O)N3COP(=O)(O)O)oc2ccccc12` [Debio-1450], in [5] (setting [13]), the Cmax amounted to 2210 ng/mL, the Tmax is 0.67 h and the half-life was 4.2 h. The same compound displayed a F in data set [5] (10 mg/Kg vs tail vein injection) of 97%.
